The source made the active and inactive calls. The rule behind the calls is not given here.
Legend:
Avena fatua [1] = test: Post-emergence growth inhibition of Avena fatua assessed as visual injury at 0.5 kg/ha after 9 days relative to control; assay type: functional; parameters: scale not given: the % may be the effect or the level left
[2] = test system: Agrostis stolonifera var. palustris; test: Herbicidal activity against Agrostis stolonifera var. palustris after 9 days by agarose-based test; assay type: functional
Echinochloa crus-galli [3] = test: Post-emergence herbicidal activity against Echinochloa crus-galli (barnyard grass) assessed as visual injury at 2 kg/ha after 9 days relative to control; assay type: functional
Echinochloa crus-galli [4] = test: Pre-emergence herbicidal activity against Echinochloa crus-galli (barnyard grass) after 16 days; assay type: functional
Helianthus annuus [5] = test: Post-emergence growth inhibition of Helianthus annuus (sunflower) assessed as wilting at 0.5 to 4 kg/ha after 9 days; assay type: functional, organism-based
Abutilon theophrasti [6] = test: Herbicidal activity against Abutilon theophrasti (velvetleaf) assessed as visual injury at 1 ug/seedling applied to leaf after 1 week relative to control; assay type: functional
Lemna minor [7] = test: Herbicidal activity against Lemna minor (common duckweed) assessed as visual injury at 0.2 ppm after 9 days relative to control; assay type: functional
Avena fatua [8] = test: Post-emergence growth inhibition of Avena fatua assessed as stunting at 0.5 to 4 kg/ha after 9 days; assay type: functional, organism-based
Echinochloa crus-galli [9] = test: Pre-emergence herbicidal activity against Echinochloa crus-galli (barnyard grass) assessed as visual injury at 2 kg/ha after 16 days relative to control; assay type: functional
Ipomoea hederacea [10] = test: Herbicidal activity against Ipomoea hederacea (ivy-leaved morning glory) assessed as visual injury at 1 ug/seedling applied to meristem after 1 week relative to control; assay type: functional
Helianthus annuus [11] = test: Post-emergence growth inhibition of Helianthus annuus (sunflower) assessed as stunting at 0.5 to 4 kg/ha after 9 days; assay type: functional, organism-based
Ipomoea hederacea [12] = test: Pre-emergence herbicidal activity against Ipomoea hederacea (ivy-leaved morning glory) assessed as meristematic at 0.5 to 4 kg/ha after 16 days; assay type: functional, organism-based
Helianthus annuus [13] = test: Pre-emergence growth inhibition of Helianthus annuus (sunflower) assessed as visual injury at 2 kg/ha after 16 days relative to control; assay type: functional; parameters: scale not given: the % may be the effect or the level left
Helianthus annuus [14] = test: Herbicidal activity against Helianthus annuus (sunflower) assessed as visual injury at 100 ug/seedling applied to meristem after 1 week relative to control; assay type: functional
Ipomoea hederacea [15] = test: Post-emergence herbicidal activity against Ipomoea hederacea (ivy-leaved morning glory) assessed as meristematic at 0.5 to 4 kg/ha after 9 days; assay type: functional, organism-based
Ipomoea hederacea [16] = test: Pre-emergence herbicidal activity against Ipomoea hederacea (ivy-leaved morning glory) assessed as visual injury at 1 kg/ha after 16 days relative to control; assay type: functional
Ipomoea hederacea [17] = test: Herbicidal activity against Ipomoea hederacea (ivy-leaved morning glory) assessed as visual injury at 100 ug/seedling applied to meristem after 1 week relative to control; assay type: functional
Helianthus annuus [18] = test: Pre-emergence growth inhibition of Helianthus annuus (sunflower) after 16 days; assay type: functional
Lemna minor [19] = test: Herbicidal activity against Lemna minor (common duckweed) assessed as visual injury at 25 ppm after 9 days relative to control; assay type: functional
Abutilon theophrasti [20] = test: Herbicidal activity against Abutilon theophrasti (velvetleaf) assessed as visual injury at 10 ug/seedling applied to meristem after 1 week relative to control; assay type: functional
Ipomoea hederacea [21] = test: Herbicidal activity against Ipomoea hederacea (ivy-leaved morning glory) assessed as visual injury at 1 ug/seedling applied to cotyledon after 1 week relative to control; assay type: functional
Ipomoea hederacea [22] = test: Post-emergence herbicidal activity against Ipomoea hederacea (ivy-leaved morning glory) assessed as stunting at 0.5 to 4 kg/ha after 9 days; assay type: functional, organism-based
Ipomoea hederacea [23] = test: Pre-emergence herbicidal activity against Ipomoea hederacea (ivy-leaved morning glory) assessed as stunting at 0.5 to 4 kg/ha after 16 days; assay type: functional, organism-based
Ipomoea hederacea [24] = test: Pre-emergence herbicidal activity against Ipomoea hederacea (ivy-leaved morning glory) assessed as visual injury at 2 kg/ha after 16 days relative to control; assay type: functional
Lemna minor [25] = test: Herbicidal activity against Lemna minor (common duckweed) assessed as visual injury at 5 ppm after 9 days relative to control; assay type: functional
Abutilon theophrasti [26] = test: Herbicidal activity against Abutilon theophrasti (velvetleaf) assessed as visual injury at 100 ug/seedling applied to meristem after 1 week relative to control; assay type: functional
Helianthus annuus [27] = test: Herbicidal activity against Helianthus annuus (sunflower) assessed as visual injury at 1 ug/seedling applied to cotyledon after 1 week relative to control; assay type: functional
Echinochloa crus-galli [28] = test: Pre-emergence herbicidal activity against Echinochloa crus-galli (barnyard grass) assessed as visual injury at 1 kg/ha after 16 days relative to control; assay type: functional
Abutilon theophrasti [29] = test: Herbicidal activity against Abutilon theophrasti (velvetleaf) assessed as visual injury at 100 ug/seedling applied to leaf after 1 week relative to control; assay type: functional
Ipomoea hederacea [30] = test: Pre-emergence herbicidal activity against Ipomoea hederacea (ivy-leaved morning glory) assessed as visual injury at 4 kg/ha after 16 days relative to control; assay type: functional
Helianthus annuus [31] = test: Pre-emergence growth inhibition of Helianthus annuus (sunflower) assessed as visual injury at 4 kg/ha after 16 days relative to control; assay type: functional; parameters: scale not given: the % may be the effect or the level left
Helianthus annuus [32] = test: Herbicidal activity against Helianthus annuus (sunflower) assessed as visual injury at 10 ug/seedling applied to cotyledon after 1 week relative to control; assay type: functional
Lemna minor [33] = test: Herbicidal activity against Lemna minor (common duckweed) assessed as visual injury at 0.008 ppm after 9 days relative to control; assay type: functional
Ipomoea hederacea [34] = test: Pre-emergence herbicidal activity against Ipomoea hederacea (ivy-leaved morning glory) assessed as visual injury at 0.5 kg/ha after 16 days relative to control; assay type: functional
Echinochloa crus-galli [35] = test: Post-emergence herbicidal activity against Echinochloa crus-galli (barnyard grass) assessed as meristematic at 0.5 to 4 kg/ha after 9 days; assay type: functional, organism-based
Ipomoea hederacea [36] = test: Herbicidal activity against Ipomoea hederacea (ivy-leaved morning glory) assessed as visual injury at 10 ug/seedling applied to meristem after 1 week relative to control; assay type: functional
Avena fatua [37] = test: Pre-emergence growth inhibition of Avena fatua assessed as visual injury at 4 kg/ha after 16 days relative to control; assay type: functional; parameters: scale not given: the % may be the effect or the level left
Avena fatua [38] = test: Pre-emergence growth inhibition of Avena fatua assessed as stunting at 0.5 to 4 kg/ha after 16 days; assay type: functional, organism-based
Echinochloa crus-galli [39] = test: Pre-emergence herbicidal activity against Echinochloa crus-galli (barnyard grass) assessed as meristematic at 0.5 to 4 kg/ha after 16 days; assay type: functional, organism-based
Echinochloa crus-galli [40] = test: Post-emergence herbicidal activity against Echinochloa crus-galli (barnyard grass) assessed as visual injury at 0.5 kg/ha after 9 days relative to control; assay type: functional
Avena fatua [41] = test: Pre-emergence growth inhibition of Avena fatua after 16 days; assay type: functional
[42] = test system: Agrostis stolonifera var. palustris; test: Herbicidal activity against Agrostis stolonifera var. palustris assessed as stunting after 9 days by agarose-based test; assay type: functional, organism-based
[43] = test system: Agrostis stolonifera var. palustris; test: Herbicidal activity against Agrostis stolonifera var. palustris assessed as visual injury at 1 ppm after 9 days relative to control; assay type: functional
Ipomoea hederacea [44] = test: Post-emergence herbicidal activity against Ipomoea hederacea (ivy-leaved morning glory) assessed as visual injury at 2 kg/ha after 9 days relative to control; assay type: functional
Lemna minor [45] = test: Herbicidal activity against Lemna minor (common duckweed) assessed as visual injury at 1 ppm after 9 days relative to control; assay type: functional
Helianthus annuus [46] = test: Pre-emergence growth inhibition of Helianthus annuus (sunflower) assessed as stunting at 0.5 to 4 kg/ha after 16 days; assay type: functional, organism-based
Ipomoea hederacea [47] = test: Post-emergence herbicidal activity against Ipomoea hederacea (ivy-leaved morning glory) assessed as visual injury at 0.5 kg/ha after 9 days relative to control; assay type: functional

**Q.** Which Activity (Avena fatua [1]) does the source give for `CN1C(=O)[C@](O)(Cc2cccc(O)c2)N(C)C(=O)[C@@H]1Cc1c[nH]c2cccc([N+](=O)[O-])c12` [THAXTOMIN A] here?
**A.** 0%

**Q.** What about the I50 [2] of the same compound?
**A.** 25 ppb

**Q.** And the Activity (Echinochloa crus-galli [3])?
**A.** 40%

**Q.** What about the GR50 (Echinochloa crus-galli [4]) of the same compound?
**A.** <500 g/ha

**Q.** What about the Activity (Helianthus annuus [5]) of the same compound?
**A.** Active

**Q.** What about the Activity (Abutilon theophrasti [6]) of the same compound?
**A.** 0%

**Q.** What about the Activity (Lemna minor [7]) of the same compound?
**A.** 95%

**Q.** And the Activity (Avena fatua [8])?
**A.** Active

**Q.** What about the Activity (Echinochloa crus-galli [9]) of the same compound?
**A.** 100%

**Q.** And the Activity (Ipomoea hederacea [10])?
**A.** 75%

**Q.** What about the Activity (Helianthus annuus [11]) of the same compound?
**A.** Active

**Q.** What about the Activity (Ipomoea hederacea [12]) of the same compound?
**A.** Active

**Q.** And the Activity (Helianthus annuus [13])?
**A.** 100%

**Q.** And the Activity (Helianthus annuus [14])?
**A.** 90%

**Q.** And the Activity (Ipomoea hederacea [15])?
**A.** Active

**Q.** What about the Activity (Ipomoea hederacea [16]) of the same compound?
**A.** 100%

**Q.** What about the Activity (Ipomoea hederacea [17]) of the same compound?
**A.** 80%

**Q.** What about the GR50 (Helianthus annuus [18]) of the same compound?
**A.** <500 g/ha

**Q.** And the Activity (Lemna minor [19])?
**A.** 100%

**Q.** And the Activity (Abutilon theophrasti [20])?
**A.** 75%

**Q.** And the Activity (Ipomoea hederacea [21])?
**A.** 0%

**Q.** And the Activity (Ipomoea hederacea [22])?
**A.** Active

**Q.** And the Activity (Ipomoea hederacea [23])?
**A.** Active

**Q.** And the Activity (Ipomoea hederacea [24])?
**A.** 100%

**Q.** What about the Activity (Lemna minor [25]) of the same compound?
**A.** 100%

**Q.** What about the Activity (Abutilon theophrasti [26]) of the same compound?
**A.** 80%

**Q.** What about the Activity (Helianthus annuus [27]) of the same compound?
**A.** 0%

**Q.** And the Activity (Echinochloa crus-galli [28])?
**A.** 98%

**Q.** What about the Activity (Abutilon theophrasti [29]) of the same compound?
**A.** 0%

**Q.** And the Activity (Ipomoea hederacea [30])?
**A.** 100%

**Q.** What about the Activity (Helianthus annuus [31]) of the same compound?
**A.** 100%

**Q.** What about the Activity (Helianthus annuus [32]) of the same compound?
**A.** 0%

**Q.** What about the Activity (Lemna minor [33]) of the same compound?
**A.** 30%

**Q.** And the Activity (Ipomoea hederacea [34])?
**A.** 100%

**Q.** What about the Activity (Echinochloa crus-galli [35]) of the same compound?
**A.** Active

**Q.** And the Activity (Ipomoea hederacea [36])?
**A.** 80%

**Q.** And the Activity (Avena fatua [37])?
**A.** 100%

**Q.** And the Activity (Avena fatua [38])?
**A.** Active

**Q.** And the Activity (Echinochloa crus-galli [39])?
**A.** Active

**Q.** What about the Activity (Echinochloa crus-galli [40]) of the same compound?
**A.** 10%

**Q.** And the GR50 (Avena fatua [41])?
**A.** <500 g/ha

**Q.** And the Activity [42]?
**A.** Active

**Q.** And the Activity [43]?
**A.** 100%

**Q.** What about the Activity (Ipomoea hederacea [44]) of the same compound?
**A.** 80%

**Q.** And the Activity (Lemna minor [45])?
**A.** 100%

**Q.** What about the Activity (Helianthus annuus [46]) of the same compound?
**A.** Active

**Q.** What about the Activity (Ipomoea hederacea [47]) of the same compound?
**A.** 70%

From ChEMBL document CHEMBL3046609, “Herbicidal properties of the thaxtomin group of phytotoxins” (2001)
